Reference: US20250066425A1, “POLYPEPTIDE AND APPLICATION THEREOF IN PREPARATION OF ANTI-FIBROSIS DRUG” (priority 2022, published 2025)
Residues, ends and D or L forms follow the SMILES beside them.

Experiment: toxic or side effect on mice after injection for several times (serum biochemistry)
Type: in vivo, C57 mice
Method: During sampling of the mice with myocardial infarction modeling for 4 weeks and intramyocardial injection of the polypeptide PAFRK29 for 5 times in Example 6, peripheral blood of the mice was collected into an anticoagulant tube and centrifuged at 1,000 g for 10 minutes. Serum of a supernatant was taken, and levels of blood urea nitrogen (BUN), serum alanine aminotransferase (ALT) and serum aspartate aminotransferase (AST) were determined by an automatic biochemical analyzer.

[1] = myocardial infarction mice, 4 weeks, intramyocardial injection 5 times, vs control group

Question: What does the source list for `CC(C)[C@H](NC(=O)[C@@H]1CCCN1C(=O)[C@H](Cc1c[nH]cn1)NC(=O)[C@H](CCCCN)NC(=O)[C@H](Cc1ccc(O)cc1)NC(=O)[C@H](CCC(N)=O)NC(=O)[C@H](CCCNC(=N)N)NC(=O)[C@H](CO)NC(=O)[C@H](Cc1c[nH]cn1)NC(=O)[C@H](Cc1ccccc1)NC(=O)[C@H](Cc1ccc(O)cc1)NC(=O)[C@H](CCC(N)=O)NC(=O)CNC(=O)[C@H](CCC(N)=O)NC(=O)[C@H](Cc1ccccc1)NC(=O)[C@H](CCCNC(=N)N)NC(=O)[C@H](CCCNC(=N)N)NC(=O)[C@H](CCCNC(=N)N)NC(=O)[C@H](CCC(N)=O)NC(=O)[C@H](CCCNC(=N)N)NC(=O)[C@H](CCCNC(=N)N)NC(=O)[C@H](CCCCN)NC(=O)[C@H](CCCCN)NC(=O)[C@@H](N)CCCNC(=N)N)C(=O)NCC(=O)N[C@@H](Cc1ccc(O)cc1)C(=O)N[C@@H](CCC(=O)O)C(=O)NCC(=O)N[C@@H](CCCCN)C(=O)O` [PAFRK29] (H-RKKRRQRRRFQGQYFHSRQYKHPVGYEGK-OH; N-terminus and C-terminus assumed)?
Answer: toxic or side effect on the mice (at an effective anti-fibrosis dose): no obvious toxic or side effect; level of blood urea nitrogen (BUN) [1]: no obvious differences; level of serum alanine aminotransferase (ALT) [1]: no obvious differences; level of serum aspartate aminotransferase (AST) [1]: no obvious differences
